These results are taken from patent US9266939B2, “Compositions comprising natriuretic peptides and methods of use thereof” (Alexion Pharmaceuticals, Inc., priority 2010, dated 2016).

Like-named read-outs stand apart in the source and are kept apart here. Bridge positions count the residues as written; N and C are the ends. Ends that are not written are not given here. Peptide text beside a SMILES is read from it.

Data set [1] deals with T1, neutral endopeptidase (NEP) (Homo sapiens, UniProt P08473). Kind of data set: in vitro. Conditions: isolated enzyme neprilysin, pH 7.5.
T1 sequence (P08473 whole entry): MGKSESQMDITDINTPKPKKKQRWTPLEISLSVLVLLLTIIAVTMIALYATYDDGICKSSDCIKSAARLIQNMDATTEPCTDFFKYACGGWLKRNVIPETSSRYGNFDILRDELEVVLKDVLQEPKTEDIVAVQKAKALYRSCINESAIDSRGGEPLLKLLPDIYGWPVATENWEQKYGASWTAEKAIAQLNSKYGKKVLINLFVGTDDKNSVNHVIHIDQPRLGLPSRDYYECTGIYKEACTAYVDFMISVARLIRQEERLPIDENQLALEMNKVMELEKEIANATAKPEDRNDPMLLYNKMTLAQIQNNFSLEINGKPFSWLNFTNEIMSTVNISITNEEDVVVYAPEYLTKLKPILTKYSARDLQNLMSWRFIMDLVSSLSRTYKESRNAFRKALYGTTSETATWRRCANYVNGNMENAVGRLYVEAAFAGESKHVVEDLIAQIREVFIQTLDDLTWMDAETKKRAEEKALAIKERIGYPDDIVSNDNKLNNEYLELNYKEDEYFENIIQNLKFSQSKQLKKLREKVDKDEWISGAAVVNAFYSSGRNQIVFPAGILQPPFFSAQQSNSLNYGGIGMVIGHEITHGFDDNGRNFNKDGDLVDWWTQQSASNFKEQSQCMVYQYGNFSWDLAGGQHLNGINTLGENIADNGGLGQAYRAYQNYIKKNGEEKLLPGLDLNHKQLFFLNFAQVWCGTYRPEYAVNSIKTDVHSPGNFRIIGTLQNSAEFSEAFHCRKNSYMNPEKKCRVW
The target of the next data set is T2, NPR-B (Homo sapiens, UniProt P20594).
T2 sequence (P20594 23-1047): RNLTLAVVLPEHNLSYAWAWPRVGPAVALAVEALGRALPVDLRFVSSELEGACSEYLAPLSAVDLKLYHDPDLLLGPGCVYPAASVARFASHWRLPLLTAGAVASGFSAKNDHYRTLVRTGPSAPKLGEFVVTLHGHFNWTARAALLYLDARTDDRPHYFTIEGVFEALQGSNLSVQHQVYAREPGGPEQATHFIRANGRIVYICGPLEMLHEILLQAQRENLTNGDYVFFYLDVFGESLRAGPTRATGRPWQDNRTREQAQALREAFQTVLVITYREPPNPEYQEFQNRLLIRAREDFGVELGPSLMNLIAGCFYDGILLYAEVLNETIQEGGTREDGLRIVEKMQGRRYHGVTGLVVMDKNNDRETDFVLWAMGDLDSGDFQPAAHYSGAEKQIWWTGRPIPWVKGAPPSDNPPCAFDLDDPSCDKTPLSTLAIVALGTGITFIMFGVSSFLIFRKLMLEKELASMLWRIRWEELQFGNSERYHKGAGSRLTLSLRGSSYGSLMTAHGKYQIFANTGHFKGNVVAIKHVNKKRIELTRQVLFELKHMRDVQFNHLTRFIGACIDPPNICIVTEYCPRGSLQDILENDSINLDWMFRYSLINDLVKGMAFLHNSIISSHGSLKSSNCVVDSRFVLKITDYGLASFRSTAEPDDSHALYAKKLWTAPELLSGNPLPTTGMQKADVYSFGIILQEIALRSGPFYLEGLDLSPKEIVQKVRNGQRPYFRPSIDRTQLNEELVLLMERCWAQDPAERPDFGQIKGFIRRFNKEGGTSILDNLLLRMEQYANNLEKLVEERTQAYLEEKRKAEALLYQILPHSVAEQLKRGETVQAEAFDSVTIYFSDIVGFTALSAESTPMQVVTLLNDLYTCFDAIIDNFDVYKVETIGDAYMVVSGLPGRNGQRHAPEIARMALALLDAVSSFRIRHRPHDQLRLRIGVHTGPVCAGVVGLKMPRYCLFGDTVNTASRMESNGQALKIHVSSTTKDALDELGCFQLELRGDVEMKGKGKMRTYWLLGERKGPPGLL
Kind of data set: Whole cell guanylyl cyclase (cGMP) assay, NPR-B. The data set is classed as cell-based. Also on record: expressed in transfected cells. Conditions: for Emax: read-out: % Efficacy. The method, then:
HEK293S cells in a semi-confluent 75 cm2 flask are transfected with 30 μg of plasmid DNA coding for the appropriate receptor, e.g., human NPR-B or NPR-A, using Lipofectamine-2000CD. Alternatively, a stable polyclonal HEK293 S cell line expressing either human NPR-B or NPR-A was used. 24 hours after transfection, cells are trypsinized and plated into 48-well plates at 1×10^5 cells/well. Guanylyl cyclase assay is carried out 24 hours post-plating. Cells are first incubated for 30 minutes at 37° C. with serum-free DMEM medium. Then, they are incubated in triplicate with or without increasing concentrations of reference or test proteins in serum-free DMEM supplemented with 1 mM IBMX and 0.5% BSA, at 37° C. for 30 minutes to one hour. CNP serves as a suitable reference for NPR-B, while ANP is a suitable reference for NPR-A. Finally, cells are washed with ice-cold PBS and solubilized in lysis buffer from Catchpoint cGMP kit (Molecular devices). Concentrations of cGMP in lysate are determined using the Catchpoint cGMP kit. Dose-response curves are analysed with GraphPad Prism 5 software using non-linear regression with four-parameter logistic equation.

Data set [2] concerns the target T1, neutral endopeptidase (NEP).

For `CC[C@H](C)[C@@H]1NC(=O)[C@H](CCCNC(=N)N)NC(=O)[C@H](CC(=O)O)NC(=O)[C@H](CC(C)C)NC(=O)[C@H](CCCCN)NC(=O)[C@H](CC(C)C)NC(=O)CNC(=O)[C@H](Cc2ccccc2)NC(=O)[C@@H](NC(=O)CNC(=O)[C@H](CCCCN)NC(=O)[C@H](CO)NC(=O)[C@H](CC(C)C)NC(=O)CN)CSSC[C@@H](C(=O)N2CCC[C@H]2C(=O)N[C@@H](CO)C(=O)N[C@@H](CO)C(=O)N[C@@H](C)C(=O)N[C@@H](C)C(=O)N[C@@H](CCCNC(=N)N)C(=O)N[C@@H](CCCNC(=N)N)C(=O)O)NC(=O)CNC(=O)[C@H](CC(C)C)NC(=O)CNC(=O)[C@H](CO)NC(=O)[C@H](CCSC)NC(=O)[C@H](CO)NC(=O)CNC1=O` [CDNP29-S3A4A5R6 [C14]], the share remaining at 4 h in data set [1] was 99%.

As for `CC[C@H](C)[C@@H]1NC(=O)[C@H](CCCNC(=N)N)NC(=O)[C@H](CC(=O)O)NC(=O)[C@H](CC(C)C)NC(=O)[C@H](CCCCN)NC(=O)[C@H](CC(C)C)NC(=O)CNC(=O)[C@H](Cc2ccccc2)NC(=O)[C@@H](NC(=O)CNC(=O)[C@H](CCCCN)NC(=O)[C@H](CO)NC(=O)[C@H](CC(C)C)NC(=O)CN)CSSC[C@@H](C(=O)N2CCC[C@H]2C(=O)N[C@@H](CO)C(=O)N[C@@H](CO)C(=O)N[C@@H](C)C(=O)N[C@@H](C)C(=O)N[C@@H](CCCNC(=N)N)C(=O)N[C@@H](CCCNC(=N)N)C(=O)N2CCC[C@H]2C(=O)N[C@@H](CC(N)=O)C(=O)N[C@@H](C)C(=O)N2CCC[C@H]2C(=O)N[C@@H](CO)C(=O)N[C@H](C(=O)N[C@@H](CO)C(=O)N[C@@H](C)C(=O)O)[C@@H](C)O)NC(=O)CNC(=O)[C@H](CC(C)C)NC(=O)CNC(=O)[C@H](CO)NC(=O)[C@H](CCSC)NC(=O)[C@H](CO)NC(=O)CNC1=O` [CDNP-S3A4A5R6 [C13]] (HELM PEPTIDE1{G.L.S.K.G.C.F.G.L.K.L.D.R.I.G.S.M.S.G.L.G.C.P.S.S.A.A.R.R.P.N.A.P.S.T.S.A}$PEPTIDE1,PEPTIDE1,6:R3-22:R3$$$V2.0), the fraction remaining at 4 h in data set [1] was found to be 100%.

Broadly, the EC50 is the concentration at which the effect is half-maximal. As for `CC[C@H](C)[C@@H]1NC(=O)[C@H](CCCNC(=N)N)NC(=O)[C@H](CC(=O)O)NC(=O)[C@H](CC(C)C)NC(=O)[C@H](CCCCN)NC(=O)[C@H](CC(C)C)NC(=O)CNC(=O)[C@H](Cc2ccccc2)NC(=O)[C@@H](NC(=O)CNC(=O)[C@H](CCCCN)NC(=O)[C@H](CO)NC(=O)[C@H](CC(C)C)NC(=O)CN)CSSC[C@@H](C(=O)O)NC(=O)CNC(=O)[C@H](CC(C)C)NC(=O)CNC(=O)[C@H](CO)NC(=O)[C@H](CCSC)NC(=O)[C@H](CO)NC(=O)CNC1=O` [CNP22, reference compound], on NPR-B, the “EC50 Ratio versus CNP22” value worked out at 1.00, the “Rescue Ratio versus CNP22” value is reported as 1 and the Emax was determined as 100%. The same compound displayed a concentration for a half-maximal effect (EC50) on NPR-B (EC50) of 14.7 ± 3.4 nM. At NPR-B (EC50 on NPR-B), this compound showed an EC50 of 4.87 nM. Further, on NPR-B (agonist concentration producing cGMP as 2.4 nM (lower) and 14 nM (high) CNP22), the Rescue range fell in the range of 2.4 to 14 nM. The “Rescue Ratio Average” value on NPR-B (peptides, NPR-B whole cell cGMP assay) was determined as 1. In data set [2], the “% of control after 240 min” value is recorded as 0% and the “Resist NEP degradation (No/Yes)” value is given as “No”. The amount remaining at 4 h in data set [1] is 0%.

Regarding `CC[C@H](C)[C@@H]1NC(=O)[C@H](CCCNC(=N)N)NC(=O)[C@H](CC(=O)O)NC(=O)[C@H](CC(C)C)NC(=O)[C@H](CCCCN)NC(=O)[C@H](CC(C)C)NC(=O)CNC(=O)[C@H](Cc2ccccc2)NC(=O)[C@@H](NC(=O)CNC(=O)[C@H](CCCCN)NC(=O)[C@H](CO)NC(=O)[C@H](CC(C)C)NC(=O)CNC(=O)CNC(=O)[C@H](CO)NC(=O)[C@H](CO)NC(=O)[C@H](C)NC(=O)[C@H](C)NC(=O)[C@@H]2CCCN2C(=O)[C@H](CCCNC(=N)N)NC(=O)[C@@H]2CCCN2C(=O)[C@H](CC(N)=O)NC(=O)[C@H](C)NC(=O)[C@@H]2CCCN2C(=O)[C@H](CO)NC(=O)[C@@H](NC(=O)[C@H](CO)NC(=O)[C@H](C)N)[C@@H](C)O)CSSC[C@@H](C(=O)O)NC(=O)CNC(=O)[C@H](CC(C)C)NC(=O)CNC(=O)[C@H](CO)NC(=O)[C@H](CCSC)NC(=O)[C@H](CO)NC(=O)CNC1=O` [CNP-Nterm2 [C5]] (HELM PEPTIDE1{A.S.T.S.P.A.N.P.R.P.A.A.S.S.G.G.L.S.K.G.C.F.G.L.K.L.D.R.I.G.S.M.S.G.L.G.C}$PEPTIDE1,PEPTIDE1,21:R3-37:R3$$$V2.0), the fraction remaining at 4 h in data set [1] came to 106%.

For “DDDDDDGGGGSGGGGSGGGGGLSKGCFGLKLDRIGSMSGLGC (disulfide 26-42) [D6-14AAlinker-CNP [C3]]”, the amount remaining at 4 h in data set [1] stood at 101%.

“EEEEEEASTSPANPQPAASSPGLSKGCFGLKLDRIGSMSGLGC (disulfide 27-43) [C2(E6) [BC2]]”: on NPR-B, the “EC50 Ratio versus CNP22” value is reported as 49.0, the “Rescue Ratio Average” value is recorded as 803, the “Rescue Ratio versus CNP22” value is given as 177-1429 and the Rescue range fell in the range of 424 to 20000 nM. Besides, the Emax on NPR-B came out at 97%. Also, the concentration for a half-maximal effect (EC50) at NPR-B (EC50) is 720 nM. In addition, in data set [2], the “Resist NEP degradation (No/Yes)” value was “Yes”. For the same compound, in data set [1], the share remaining at 4 h stood at 101%.

In the case of “EEEEEEHGPQGQEHPNARKYKGANKKGLSKGCFGLKLDRIGSMSGLGC (disulfide 32-48) [KA1(E6)]”, on NPR-B, the “EC50 Ratio versus CNP22” value is on record as 9.79, the “Rescue Ratio Average” value is recorded as 8.2, the Rescue range was 21.6 to 102 nM and the “potency compared with the other tested peptides” value is listed as “more potent than the other tested peptides”. For the same compound, at NPR-B, the Emax was 108%. Besides, it took 144 nM to reach a half-maximal effect on NPR-B (EC50) (EC50). Further, the “Resist NEP degradation (No/Yes)” value in data set [2] was “Yes”. In addition, in data set [1], the amount remaining at 4 h came out at 108%.

In the case of “EEEEEEHKLRGQEHPNARKYKGANKKGLSKGCFGLKLDRIGSMSGLGC (disulfide 32-48) [KB1(E6)]”, on NPR-B, the “EC50 Ratio versus CNP22” value amounted to 5.75, the “Rescue Ratio Average” value worked out at 5.6, the “Rescue Ratio versus CNP22” value was 5.6-5.6 and the Rescue range lay in the range of 13.4 to 78.1 nM. Further, on NPR-B, the “potency compared with the other tested peptides” value is “more potent than the other tested peptides” and the Emax was 109%. For the same compound, on NPR-B (EC50), the EC50 worked out at 84.5 nM. Moreover, the “Resist NEP degradation (No/Yes)” value in data set [2] is given as “Yes”. Moreover, the share remaining at 4 h in data set [1] is 107%.

Turning to “EEEEEEPSSAAPQPNAPSTSAGLSKGCFGLKLDRIGSMSGLGC (disulfide 27-43) [C3(E6) [BC3]]”, at NPR-B, the “EC50 Ratio versus CNP22” value came to 67.4, the “Rescue Ratio Average” value came out at 199, the “Rescue Ratio versus CNP22” value is reported as 117-281 and the Rescue range lay in the range of 280 to 3927 nM. On NPR-B, the Emax came out at 67%. The compound also came in with an EC50 on NPR-B (EC50) of 990 nM. Further, the “Resist NEP degradation (No/Yes)” value in data set [2] is listed as “Yes”. The amount remaining at 4 h in data set [1] stood at 100%.

On to “EEEEEESGGGGSGGGGSGGGGGLSKGCFGLKLDRIGSMSGLGC (disulfide 27-43) [C1(E6) [BC1]]”, for which, at NPR-B, the “EC50 Ratio versus CNP22” value stood at 118, the “Rescue Ratio Average” value is 122, the “Rescue Ratio versus CNP22” value is 120-124 and the Rescue range was in the range of 289 to 1733 nM. Further, the Emax on NPR-B was 97%. A half-maximal effect at NPR-B (EC50) (EC50) was put at 1740 nM. The “Resist NEP degradation (No/Yes)” value in data set [2] is “Yes”. In addition, the share remaining at 4 h in data set [1] turned out to be 99%.

Take “EEEEEESGGGGSGGGKGANKKGLSKGCFGLKLDRIGSMSGLGC (disulfide 27-43) [C4(E6) [BC4]]”: on NPR-B, the “EC50 Ratio versus CNP22” value was 20.5, the “Rescue Ratio Average” value was 18, the Rescue range was 46 to 219 nM and the Emax worked out at 136%. The compound also yielded an EC50 at NPR-B (EC50) of 302 nM. In addition, the “Resist NEP degradation (No/Yes)” value in data set [2] was “Yes”. In data set [1], the amount remaining at 4 h stood at 94%.
